Assay results from patent US7022663B2 (Yeda Research and Development Co., Ltd., priority 2000, dated 2006).
“And” between values parts separate entries of the source, which are not always exact repeats. Equal values may be shown once. Read-outs that look alike come from different tables or passages of the source.

What was measured:
IL-2 [1] = conditions: cited from earlier work
[2] = tested on: experimental allergic encephalomyelitis (EAE); conditions: cited from earlier work
[3] = tested on: exacerbating-remitting multiple sclerosis; conditions: daily subcutaneous injections, phase III; cited from earlier work
EAE [4] = tested on: EAE
Text: EAE was induced in Lewis rats by the injection of guinea pig spinal cord homogenate in CFA into the hind legs.

EAE [5] = conditions: monkey, in vivo
Th2 = conditions: cited from earlier work
Chronic-relapsing EAE = tested on: Chronic-relapsing EAE
Text: Chronic—relapsing EAE was induced in female Biozzi mice by the injection of mouse spinal cord homogenate (MSCH) in CFA, following by re-injection of the encephalitogen one week later, in the same manner.

IFN-γ = conditions: cited from earlier work
IL-2 [6] = conditions: oral, enteric coated capsules, MS patients
IL-10 = conditions: oral, enteric coated capsules, MS patients
T cell = conditions: Aharoni et al. 1997; cited from earlier work
[7] = tested on: Experimental allergic Encephalomyelitis (EAE)
Protocol: Rhesus monkeys were fed with the enteric coated capsules. 5 feedings before disease induction and 5 feedings after disease induction, on alternate days. Experimental allergic Encephalomyelitis (EAE) was induced by injecting 8 mg myelin basic protein (MBP) in complete Freund's adjuvant (CFA) intra-dermally into the leg. EAE symptoms were evaluated on the following scale:
Evaluation of EAE clinical signs

EAE [8] = conditions: enteric-coated tablets
Text: As in Example 3B, observation began on day 8 and continued until the conclusion of the experiment, which, in this case, was day 57. […] EAE-related neurological signs appeared between day 14 and 54 as specified in Table 9. Animals were sacrificed when they reached score 4.

[9] = tested on: relapsing-remitting form of EAE; assay: Induction of relapsing-remitting EAE in Cynamologus monkeys by MBP in CFA; assay type: in vivo
Protocol: A relapsing-remitting form of EAE was induced by the injection of emulsified MBP in CFA containing 3 mg/ml of Mycobacterium Tuberculosis (MT), intradermally into right & left footpads.
Observation was initiated on day 8.

[10] = all dose groups, daily gavage of solution
[11] = oral solution daily from day 16

For “L-glutamic acid polymer with L-alanine, L-lysine and L-tyrosine, acetate (salt) [Copolymer 1]”, the “pro-GVHD IL-2 cytokine secretion” value (IL-2 [1]) is given as “prevented”, the “effect on EAE” value ([2]; induced by various encephalitogens including MSCH, MBP, PLP, MOG) is given as “suppress” and the activity by injection ([2]; injected subcutaneously, intra-peritoneally, intravenously or intramuscularly) is given as “active”. The progression of disability [3] was “slow”, the relapse rate [3] was “reduce” and the “% of sick rats” value (EAE [4]; [10]) was “reduced”. The disease duration (EAE [4]; [10]) was “reduced”, the disease onset (EAE [4]; [10]) was “delayed” and the “severity of disease (mean score and mean maximal score)” value (EAE [4]; [10]) was “reduced”. For the same molecule, the “effect on EAE” value (EAE [4]; solution 0.1-10 mg/kg by gavage every day from induction to day 24) was “inhibited”, the “Daily Clinical Score” value (EAE [5]) was 2 and the Incidence (EAE [5]) was 3/3 and 1/3. The “Mean Disease Onset Day” value (EAE [5]) was 14.33 and 18.33 and 23, the most effective dosage (EAE [5]) was 10 mg and the “pattern of disease compared with placebo group” value (EAE [5]) was “no obvious improvement”. The “beneficial Th2 anti-inflammatory response” value (Th2) was “induced”, the “EAE clinical symptoms of the second relapse” value (Chronic-relapsing EAE; oral solution 0.5, 2.5, 12.5 mg/kg/day from day 16, dose-dependent) was “reduced” and the “incidence of second relapse, severity of symptoms, duration of relapse” value (Chronic-relapsing EAE; [11]) was “suppressive effect was demonstrated in all parameters checked”. The most effective dose (Chronic-relapsing EAE; [11]) was 12.5 mg/kg, the “pro-GVHD IFN-γ cytokine secretion” value (IFN-γ) was “prevented” and the “change of IL-2” value (IL-2 [6]) was “decrease”. The “change of IL-10” value (IL-10) was “increase”, the “T cell proliferation in response to host cell” value (T cell) was “inhibited” and the “signs of EAE” value ([7]; 20 mg in enteric coated capsules, 5 feedings before and 5 after induction on alternate days, first study (FIG. 1), one animal) was “did not develop any signs of disease till day 60”. The “course of EAE upon treatment with 20 mg capsules” value ([7]; animal first treated with 1 mg capsules, then 20 mg enteric coated capsules) was “healed completely”, the “outcome of EAE” value ([7]; second study (FIG. 2), capsules not gastro-protective (opened in the stomach)) was “died from the disease” and the “protection from EAE” value ([7]; second study (FIG. 2), enteric coated capsules 1, 10 and 20 mg) was “fully protected from EAE”. The Incidence (EAE [8]; 10 mg group) was 3/3, the “Mean Disease Onset Day” value (EAE [8]; 10 mg group) was 30 and the “Mean Maximal Score” value (EAE [8]; 10 mg group) was 2.33. The “Mean Score” value (EAE [8]; 10 mg group) was 1.3 ± 0.56, the Incidence (EAE [8]; 20 mg group) was 3/3 and the “Mean Disease Onset Day” value (EAE [8]; 20 mg group) was 30. The “Mean Maximal Score” value (EAE [8]; 20 mg group) was 2.33, the “Mean Score” value (EAE [8]; 20 mg group) was 1.6 ± 0.53 and the “effect on incidence of the disease” value (EAE [8]; 10 and 20 mg) was “does not change the incidence of the disease”. For the same molecule, the most effective dosage (EAE [8]; 10 and 20 mg tested, confirms Example 3B) was 10 mg.

B1: MBP: myelin basic protein, natural component of the myelin sheath, injected in CFA to induce EAE (protein, UniProt P02686 1-304, looked up)
Myelin basic protein: MGNHAGKRELNAEKASTNSETNRGESEKKRNLGELSRTTSEDNEVFGEADANQNNGTSSQDTAVTDSKRTADPKNAWQDAHPADPGSRPHLIRLFSRDAPGREDNTFKDRPSESDELQTIQEDSAATSESLDVMASQKRPSQRHGSKYLATASTMDHARHGFLPRHRDTGILDSIGRFFGGDRGAPKRGSGKDSHHPARTAHYGSLPQKSHGRTQDENPVVHFFKNIVTPRTPPPSQGKGRGLSLSRFSWGAEGQRPGFGYGGRASDYKSAHKGFKGVDAQGTLSKIFKLGGRDSRSGSPMARR
With B1 the “Daily Clinical Score” value ([9]; Female Z-920, dose 2.5 mg, columns = days 14-32 after induction) was 3 and 5, the “Daily Clinical Score” value ([9]; Male Z-701, dose 10 mg, columns = days 14-32) was 0 and the “Daily Clinical Score” value ([9]; Male Z-1669, dose 5 mg, columns = days 14-32) was 0.
